Tests used:
Mus musculus = assay: Tested in vivo for cannabimimetic activity in mouse; type: functional
Cannabinoid receptor = Cannabinoid receptor (Homo sapiens, UniProt P34972+P21554); assay: Binding affinity was determined in vitro against cannabinoid receptor by ability to displace [3H]CP-55940; type: protein assay

Row | SMILES | ED50 (Mus musculus) | Ki (Cannabinoid receptor)
1 | CC(=O)c1c(C)n(CCN2CCOCC2)c2ccccc12 | > 350 µmol/kg | > 10 µM
2 | CCCCC[C@H](C)n1c(C)c(C(=O)c2cccc3ccccc23)c2ccccc21 |  | 0.072 µM
3 | CCCCCCCn1c(C)c(C(=O)c2cccc3ccccc23)c2ccccc21 | > 189 µmol/kg | > 10 µM
4 | CC(C)=CC(=O)c1c(C)n(CCN2CCOCC2)c2ccccc12 | > 103 µmol/kg | > 10 µM
5 | Cc1c(C(=O)c2cccc3ccccc23)c2ccccc2n1CCc1ccccc1 | > 257 µmol/kg | 1.25 µM
6 | CCCCCn1c(C)c(C(=O)c2cccc3ccccc23)c2ccccc21 | 2.62 µmol/kg | 0.0095 µM
7 | CCCCn1c(C)c(C(=O)c2cccc3ccccc23)c2ccccc21 |  | 0.022 µM
8 | Cc1c(C(=O)c2cccc3ccccc23)c2ccccc2n1CCC1CCCCC1 | 65.8 µmol/kg | 0.046 µM
9 | CCCCC[C@@H](C)n1c(C)c(C(=O)c2cccc3ccccc23)c2ccccc21 | 21.5 µmol/kg | 0.081 µM
10 | CCCCCCn1c(C)c(C(=O)c2cccc3ccccc23)c2ccccc21 | 14 µmol/kg | 0.048 µM
11 | CCCCCC(C)n1c(C)c(C(=O)c2cccc3ccccc23)c2ccccc21 (racemic) | 35.6 µmol/kg | 0.033 µM
12 | CCCCCCC(C)(C)c1ccc([C@@H]2C[C@H](O)CC[C@H]2CCCO)c(O)c1 [CP-55940] | 0.55 µmol/kg | 
13 | CCCCCc1cc(O)c2c(c1)OC(C)(C)[C@@H]1CCC(C)=C[C@@H]21 [DRONABINOL] | 4.7 µmol/kg | 
14 | Cc1c(C(=O)c2cccc3ccccc23)c2cccc3c2n1[C@H](CN1CCOCC1)CO3 [WIN-552122] | 6.53 µmol/kg | 
